Consider 2 compounds from patent US20230406865A1, “CRYSTAL FORM OF FREE BASE OF INHIBITOR CONTAINING BICYCLIC RING DERIVATIVE AND PREPARATION METHOD AND APPLICATION OF CRYSTAL FORM” (SHANGHAI HANSOH BIOMEDICAL CO., LTD., priority 2020, published 2023).

pIC50: −log10 of the molar value. ≈ marks a conversion by molar mass, not a printed value. Where two headings read alike, the source gives them in different places.

The target in data set [1] is T1, RET M918T (Homo sapiens, UniProt P07949, M918T).
T1 construct: purchased Carna 08-508
T1 sequence (P07949 29-1114 M918T): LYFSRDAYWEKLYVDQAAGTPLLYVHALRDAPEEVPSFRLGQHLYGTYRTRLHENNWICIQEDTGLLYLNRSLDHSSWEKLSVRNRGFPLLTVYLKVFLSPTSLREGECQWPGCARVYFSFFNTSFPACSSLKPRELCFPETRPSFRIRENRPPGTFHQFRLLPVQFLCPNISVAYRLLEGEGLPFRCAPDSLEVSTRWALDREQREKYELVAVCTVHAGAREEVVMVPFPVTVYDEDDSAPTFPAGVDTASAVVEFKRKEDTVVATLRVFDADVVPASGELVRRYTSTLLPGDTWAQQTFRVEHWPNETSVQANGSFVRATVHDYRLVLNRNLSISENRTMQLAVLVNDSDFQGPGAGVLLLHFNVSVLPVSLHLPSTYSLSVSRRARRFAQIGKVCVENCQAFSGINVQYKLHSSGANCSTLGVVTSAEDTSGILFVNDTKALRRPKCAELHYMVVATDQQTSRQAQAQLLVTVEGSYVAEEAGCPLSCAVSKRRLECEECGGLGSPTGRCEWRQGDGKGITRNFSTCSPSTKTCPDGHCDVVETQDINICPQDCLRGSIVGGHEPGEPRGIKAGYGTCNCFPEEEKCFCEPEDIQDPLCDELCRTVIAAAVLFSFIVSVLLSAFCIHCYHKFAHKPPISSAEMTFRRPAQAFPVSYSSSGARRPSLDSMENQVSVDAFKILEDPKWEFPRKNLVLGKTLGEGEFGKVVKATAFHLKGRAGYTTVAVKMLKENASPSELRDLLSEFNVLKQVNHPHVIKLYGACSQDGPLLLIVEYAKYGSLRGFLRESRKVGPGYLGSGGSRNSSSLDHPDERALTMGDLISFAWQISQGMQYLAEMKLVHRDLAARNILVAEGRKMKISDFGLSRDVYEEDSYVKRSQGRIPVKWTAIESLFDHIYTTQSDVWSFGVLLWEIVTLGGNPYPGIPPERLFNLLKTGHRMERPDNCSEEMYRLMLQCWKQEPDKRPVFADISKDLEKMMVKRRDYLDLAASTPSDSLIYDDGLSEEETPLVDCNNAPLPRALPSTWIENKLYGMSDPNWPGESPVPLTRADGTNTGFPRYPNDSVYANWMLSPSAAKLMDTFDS
The experiment in a line: HTRF kinase activity inhibition, RET M918T. It counts as biochemical. Conditions: ATP at Km. An excerpt:
(§1) 2.2 Experimental Reagents: • RET enzyme was purchased from Carna Company, and the article number was 08-159; • RET M918T enzyme was purchased from Carna Company, and the article number was 08-508; • KIF5B-RET was purchased from SignalChem Company, the article number was R02-19FG-05; • CCDC6-RET was purchased from SignalChem Company, the article number was R02-19BG-05; • RET V804M enzyme was purchased from Thermofisher Company, and the article number was PV6223; • RET V804L enzyme was purchased from Thermofisher Company, and the article number was PV4397; • HTRF KinEASE-TK kit was purchased from Cisbio Company, and the article number was 62TK0PEC; • ATP was purchased from Thermofisher Company, and the article number was PV3227; • 384-well plate was purchased from PerkinElmer Company, and the article number was 6007290.
(§2) In this experiment, a homogeneous time-resolved fluorescence (HTRF) method was used for the detection of compounds on RET kinase activity.

Data set [2] deals with T2, CCDC6-RET (Homo sapiens, UniProt P07949).
T2 construct: purchased SignalChem R02-19BG-05; the other entry of the earlier key: CCDC6 (Q16204, Coiled-coil domain-containing protein 6)
T2 sequence (P07949 with tags, fused parts or gaps): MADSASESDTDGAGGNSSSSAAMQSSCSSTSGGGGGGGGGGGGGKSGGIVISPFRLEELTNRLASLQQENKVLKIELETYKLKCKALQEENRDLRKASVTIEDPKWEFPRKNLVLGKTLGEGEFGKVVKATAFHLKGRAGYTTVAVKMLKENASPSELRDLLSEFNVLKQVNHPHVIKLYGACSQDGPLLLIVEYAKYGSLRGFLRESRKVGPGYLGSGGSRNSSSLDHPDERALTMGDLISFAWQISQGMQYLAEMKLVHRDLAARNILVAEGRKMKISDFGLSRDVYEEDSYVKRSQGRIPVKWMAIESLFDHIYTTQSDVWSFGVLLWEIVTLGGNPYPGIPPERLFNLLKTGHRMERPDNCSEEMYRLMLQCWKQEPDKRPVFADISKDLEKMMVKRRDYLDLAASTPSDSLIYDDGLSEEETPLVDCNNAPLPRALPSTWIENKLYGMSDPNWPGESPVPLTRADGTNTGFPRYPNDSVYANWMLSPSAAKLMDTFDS
In words: HTRF kinase activity inhibition, CCDC6-RET. It counts as biochemical. Conditions: ATP at Km.
Excerpt: as §1, §2
For orientation: Time-resolved FRET reads energy transfer from a long-lived donor to a nearby acceptor.

Data set [3] concerns the target T3, KIF5B-RET (Homo sapiens, UniProt P07949).
T3 construct: purchased SignalChem R02-19FG-05; the other entry of the earlier key: KIF5B (P33176, Kinesin-1 heavy chain)
T3 sequence (P07949 with tags, fused parts or gaps): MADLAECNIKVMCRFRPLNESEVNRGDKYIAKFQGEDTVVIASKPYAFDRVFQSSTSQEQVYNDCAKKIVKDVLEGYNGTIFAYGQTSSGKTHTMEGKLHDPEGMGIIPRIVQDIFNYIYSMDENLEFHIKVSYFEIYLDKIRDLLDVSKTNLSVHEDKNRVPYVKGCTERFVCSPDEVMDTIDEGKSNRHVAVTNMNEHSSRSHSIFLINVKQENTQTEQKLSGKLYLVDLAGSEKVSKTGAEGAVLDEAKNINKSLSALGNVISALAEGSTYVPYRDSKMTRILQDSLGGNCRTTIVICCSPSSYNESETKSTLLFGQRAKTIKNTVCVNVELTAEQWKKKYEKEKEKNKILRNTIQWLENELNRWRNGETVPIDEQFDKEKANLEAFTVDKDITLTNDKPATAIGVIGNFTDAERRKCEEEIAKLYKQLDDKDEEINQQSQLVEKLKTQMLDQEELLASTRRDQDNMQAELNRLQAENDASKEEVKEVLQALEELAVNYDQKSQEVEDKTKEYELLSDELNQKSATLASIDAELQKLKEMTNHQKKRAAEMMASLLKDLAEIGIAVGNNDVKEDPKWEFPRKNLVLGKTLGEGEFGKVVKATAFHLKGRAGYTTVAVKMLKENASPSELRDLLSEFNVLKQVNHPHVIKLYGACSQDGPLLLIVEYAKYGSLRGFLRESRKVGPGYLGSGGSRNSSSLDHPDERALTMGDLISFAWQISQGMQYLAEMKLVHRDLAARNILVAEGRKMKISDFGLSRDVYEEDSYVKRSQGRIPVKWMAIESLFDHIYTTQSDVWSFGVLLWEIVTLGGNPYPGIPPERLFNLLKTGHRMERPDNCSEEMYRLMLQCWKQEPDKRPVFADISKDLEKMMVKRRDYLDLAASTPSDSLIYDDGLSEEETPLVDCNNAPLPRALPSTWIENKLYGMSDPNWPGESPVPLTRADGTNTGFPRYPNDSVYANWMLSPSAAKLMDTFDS
The experiment in a line: HTRF kinase activity inhibition, KIF5B-RET. It is filed as biochemical. Particulars: ATP at Km.
Excerpt: as §1, §2

In data set [4] the target is T4, RET V804M (Homo sapiens, UniProt P07949, V804M).
T4 construct: purchased Thermofisher PV6223
T4 sequence (P07949 29-1114 V804M): as the sequence (P07949 29-1114 M918T) above, with V776M, T890M counted along it
The experiment in a line: HTRF kinase activity inhibition, RET V804M. Conditions: ATP at Km. It counts as biochemical.
Excerpt: as §1, §2

For data set [5], the target named is T5, RET V804L (Homo sapiens, UniProt P07949, V804L).
T5 construct: purchased Thermofisher PV4397
T5 sequence (P07949 29-1114 V804L): as the sequence (P07949 29-1114 M918T) above, with V776L, T890M counted along it
In words: HTRF kinase activity inhibition, RET V804L. It is filed as biochemical. Conditions: ATP at Km.
Excerpt: as §1, §2

A short description of data set [6]: Solid stability of crystal form I (HPLC impurities). It is filed as physicochemical. Conditions: 14 days. The method, then: To investigate the physical and chemical stability of the compound under light 5000 lx, high temperature 60° C., high humidity 92.5% RH, high temperature and high humidity 50° C./75% RH conditions to provide a basis for the storage of the compound.
[…] 5000 lx, high temperature 60° C., high humidity 92.5% RH, high temperature and high humidity 50° C./75% RH, and the content was determined by HPLC with external standard method, and the changes of the related substances were calculated by the area normalization method for chromatographic peak.

Data set [7] can be described thus: Hygroscopicity (DVS) of crystal form I. It counts as physicochemical. The method, then:
The crystal form I of the free base of the compound was placed in the saturated water vapor at the […] relative humidity to make the compound reach dynamic equilibrium with the water vapor, and the percentage of hygroscopic weight gain of the compound was calculated after equilibrium.

A short description of data set [8]: Thermodynamic solubility in different media at 37° C. It is filed as physicochemical. Particulars: thermodynamic from solid, read-out: Solubility of crystal form I. The method, then:
To compare the solubility of the crystal form I of the free base in pH 1-8 USP buffer, artificial simulated gastric fluid (FaSSGF), fasting artificial simulated intestinal fluid (FaSSIF), non-fasting artificial simulated intestinal fluid (FeSSIF) and pure water and other medium to provide a basis for the assessment of druggablitity.
About 1 mg of the crystal form I of the free base was mixed and suspended in different mediums for 4 hours.

[9] abbreviates: High temperature and high humidity/50° C./75% RH.

For orientation: pIC50 means the negative decadic logarithm of the IC50, by convention in mol/L. A low value points to a large IC50. For `CC1(NC(=O)c2ncccc2Cl)CCN(c2ccc(-c3cc(C#CC4(O)COC4)cn4ncc(C#N)c34)cn2)CC1` [Embodiment 97, 3-Chloro-N-(1-(5-(3-cyano-6-((3-hydroxyoxetan-3-yl)ethynyl)pyrazolo[1,5-a]pyridin-4-yl)pyridin-2-yl)-4-methylpiperidin-4-yl)picolinamide], the pIC50 in data set [1] is 9.43; in data set [2] it was 8.76; in data set [3], 9.30; in data set [4] it was 8.96; in data set [5], 9.55.
By solubility is commonly meant the dissolved amount per volume that the medium holds. `C#C[C@@](C)(O)COc1cc(-c2ccc(N3CC4CC(C3)N4Cc3ccc(OC)nc3)nc2)c2c(C#N)cnn2c1` [crystal form I, 6-(((R)-2-hydroxy-2-methylbut-3-yn-1-yl)oxy)-4-(6-(6-((6-methoxypyridin-3-yl)methyl)-3,6-diazabicyclo[3.1.1]heptan-3-yl)pyridin-3-yl)pyrazolo[1,5-a]pyridine-3-carbonitrile]: the “Increase of total impurities %” value in data set [6] (High humidity/92.5% RH), in data set [6] (setting [9]), in data set [6] (High temperature/60° C.) and in data set [6] (Light/5000 lx) was less than 0.02% each time. For the same compound, the “Maximum increase of single impurity %” value was less than 0.02% in data set [6] (High humidity/92.5% RH), 0.11% in data set [6] (setting [9]), 0.06% in data set [6] (High temperature/60° C.) and 0.18% in data set [6] (Light/5000 lx). For the same compound, the hygroscopic weight gain entry in data set [7] (RH80%, 25° C.) is recorded as “about 0.43%”. In data set [7] (RH80%, 25° C.), the hygroscopicity result is recorded as “slightly hygroscopicity”. Besides, the “XRPD pattern / crystal form after moisture absorption and desorption” value in data set [7] (two cycles at 0-95% RH) is reported as “the crystal form has not transformed”. For the same compound, the solubility at 4 h in data set [8] (FaSSGF (artificial simulated gastric fluid), fassgf or other biorelevant, FaSSGF, 37° C.) is more than 2 mg/mL; in data set [8] (FaSSIF (fasting artificial simulated intestinal fluid), FaSSIF, 37° C.), 0.001 mg/mL (≈ 1.87 µM); in data set [8] (FeSSIF (non-fasting artificial simulated intestinal fluid), FeSSIF, 37° C.) it was 0.09 mg/mL (≈ 168 µM); in data set [8] (USP buffer pH 1, simulated gastric fluid, pH 1, 37° C.), more than 2 mg/mL; in data set [8] (USP buffer pH 2, simulated gastric fluid, pH 2, 37° C.), more than 2 mg/mL; in data set [8] (USP buffer pH 3, aqueous buffer, pH 3, 37° C.) it was 0.71 mg/mL (≈ 1330 µM). Besides, the solubility at 4 h in data set [8] (USP buffer pH 4, aqueous buffer, pH 4, 37° C.) came out at 0.37 mg/mL (≈ 691 µM); in data set [8] (USP buffer pH 5, aqueous buffer, pH 5, 37° C.), 0.02 mg/mL (≈ 37.3 µM); in data set [8] (USP buffer pH 6, aqueous buffer, pH 6, 37° C.), 0.001 mg/mL (≈ 1.87 µM).
